In US20230391868A1, “COMPOSITIONS FOR AND METHODS OF TREATING CANCER” (The George Washington University, priority 2022, published 2023):

Columns and labels:
[1] = tested on: WM1361A melanoma cells; assay: CD47 gene expression upon IFNγ in WM1361A cells; format: cell-based, human; settings: NextA 2.5 μM, 5 μM, and 10 μM, 12 hr post-stimulation (FIG. 3K)
Description: (§1) qRT-PCR: Total RNA was extracted from cells using the Trizol reagent according to manufacturer's instructions (ThermoFisher Scientific, 15596018). Samples were then processed immediately or stored at −80° C. RNA was quantified using a NanoDrop One Spectrophotometer (ThermoFisher Scientific). The 260/280 ratios were routinely over 1.8. Sample cDNA was produced using the iScript cDNA synthesis kit (Bio-Rad, 1708891). Target mRNA was quantified using MyIQ single-color real-time PCR detection system from Bio-Rad (Bio-Rad, Hercules, CA) and iQ SYBR green Supermix (Bio-Rad, 1708882). […] Quantification is expressed in arbitrary units and target mRNA levels were normalized to R-actin expression.
This phenomenon was further examined in human melanoma cell lines to test the translational application of the results obtained using mouse models. […] Furthermore, the effects of HDAC6 KD on IFNγ-driven CD47 upregulation was analyzed. […] The effects of pharmacological inhibition of HDAC6 in other human melanoma cell lines (WM1361A and WM793) were also assessed. […]

[2] = tested on: mouse SIRPα promoter; assay: SIRPα-luc reporter luciferase assay in A31A7 macrophages; format: cell-based; settings: 10 μM of NextA; untreated transfected cells 32.2-fold (FIG. 2B)
Description: (§2) The mouse CD47 or SIRPα promoters were cloned into a promoterless pGL4.20[luc2/puro] vector using Genentech's cloning services (San Francisco, CA, USA). Vectors were transfected into SM1 and B16 melanoma cells using Lipofectamine 3000 (L3000008, ThermoFisher) and transfected cells were selected using puromycin. A31A7 macrophages were transiently transfected using jetOPTIMUS DNA transfection reagent (Polyplus, NY, USA). Luminescence was measured using the Luciferase Assay System (E4550, Promega) in a SpectraMax i3× Multi-Mode Microplate Reader (Molecular Devices).
To investigate whether HDAC6 controlled SIRPα expression at the transcriptional level, the mouse SIRPα promoter was cloned into a promoterless pGL4.20 [luc2/puro] vector to create a SIRPα-Luc reporter plasmid. e Nex, A31A7 macrophages were transiently transfected in the absence or presence of 10 μM of NextA and luminescence was evaluated. A31A7 cells were successfully transfected with the SIRPα-luciferase reporter vector as evidenced by a 32.2-fold increase in relative luminescence units (RLU) compared to untransfected cells (FIG. 2B).

[3] = tested on: B16 melanoma cells; assay: Cd47 mRNA upon IFNγ stimulation in B16 cells; format: cell-based, mouse; settings: IFNγ for 12 hours
Description: as §1, with “1708882). The following primers were synthesized by Invitrogen (Waltham, MA) with sequences designed by Origene (Rockville, MD): mouse R-actin (MP200232), mouse Nos2 (MP208933), mouse MRC1 (MP207800), human R-actin (HP204660), human IL-1β (HP200544), human MRC1 (HP206121), human NOS2 (HP200591), human CD209 (HP214086), mouse SIRPα (MP215450), mouse LRP1 (MP207604), human LRP1 (HP206040), mouse MFGE8 (MP208190), human MFGE8 (HP225757), mouse CD36 (MP201923), human CD36 (HP200058), and mouse CD47 (MP201932). Primers for mouse ARG-1 (PPM31770C) and human SIRPα (QT01031051) were purchased from Qiagen (Hilden, Germany).” for “1708882).”
Although the mechanism by which IFNγ drives CD47 upregulation is unclear, IFNγ expression correlates to CD47 expression in skin cutaneous melanoma (Ye Z H, et al. (2021) Transl. Oncol. 14:101162). The kinetics of Cd47 mRNA in SM1 and B16 cells upon IFNγ stimulation (100 ng/mL) were evaluated and these mouse melanoma models were determined to have different kinetics (FIG. 9A-FIG. 9B). It was determined that 12 hours was a time point for both models to sustain the IFNγ-mediated upregulation. In FIG. 9B, the role of HDAC6 inhibitors NextA and Tubastatin A in abrogating Cd47 upregulation upon stimulation with IFNγ for 12 hours was evaluated.

[4] = tested on: WM164 melanoma cells; assay: Flow cytometry-based phagocytosis assay, THP1-derived macrophages with WM164 cells; format: cell-based, human; settings: co-culture with WM164 melanoma cells (FIG. 4J)
[5] = tested on: mouse CD47 promoter; assay: CD47-luciferase reporter assay in SM1 melanoma cells; format: cell-based; settings: SM1 transfected with CD47-luciferase reporter; NextA at different concentrations (FIG. 3D)
Description: as §2
Furthermore, to investigate whether HDAC6 controls CD47 expression at the transcriptional level, the mouse CD47 promoter was cloned into a promoterless pGL4.20[luc2/puro] vector. SM1 melanoma cells were transfected with the CD47-luciferase reporter vector and stimulated with IFNγ in the absence or presence of NextA at different concentrations and measured luminescence. Treatment with NextA repressed IFNγ-mediated upregulation of Cd47 (FIG. 3D).

[6] = tested on: primary mouse BMDMs; assay: Pro-phagocytic signal gene expression in BMDMs; format: cell-based
Description: Bone marrow-derived macrophages were isolated from the femurs and tibias of wild-type C57/Bl6, HDAC6 knockout (C57BL/6J-Hdac6em2Lutzy/J, 029318, Jackson Laboratory), or UBC-GFP (C57BL/6-Tg(UBC-GFP)30Scha/J, 004353, Jackson Laboratory). Isolated bone marrow cells were cultured in RPMI 1640 complete medium with 10% FBS, 1% NEAA, and 1% penicillin-streptomycin in 5% CO2 at 37° C. Medium was supplemented with murine recombinant M-CSF (20 ng/mL, 576404, Biolegend) to differentiate monocytes into macrophages. Three days after bone marrow isolation, undifferentiated and floating cells were washed with PBS and replaced with fresh RPMI media. A3.1A7 cells and BMDMs were pretreated with 5 μM of HDAC6 inhibitor NextA or vehicle prior to adding polarizing cytokines.
as §1, with “Sample cDNA was produced using the iScript cDNA synthesis kit (Bio-Rad, 1708891).” left out

Compound: CCCCN(Cc1ccc(C(=O)NO)cc1)C(=O)Nc1ccccc1 [NextA, Nexturastat A]
- IFNγ-driven CD47 upregulation [1]: prevented
- increase in relative luminescence units (RLU) compared to untransfected cells [2]: 7.7 fold
- IFNγ-driven Cd47 upregulation at the transcriptional level [3]: repressed these effects
- phagocytosis by unpolarized THP-1 derived macrophages [4]: significantly more phagocytic
- IFNγ-mediated upregulation of Cd47 (luminescence) [5]: repressed
- expression of Lrp1, Cd36, and Mfge8 [6]: significant increase
